Converted amounts (≈) assume the structure as drawn. Like-named read-outs stand apart in the source and are kept apart here.
Key:
[1] = In vitro metabolism in hepatic microsomes (LC/MS); type: in vitro ADME, rat; conditions: for compound disappearance (loss) in hepatic microsomes: 30 min, 37° C.
Protocol: (§1) In Vitro Metabolism in Hepatic Microsomes—A compound of structure (I) was incubated for specified times at 37° C. with rat liver microsomes (e.g., 1 mg protein/ml; Sigma-Aldrich, St. Louis, Mo.) in potassium phosphate buffer (100 mM) containing NADPH (0 or 1 mM). The mixture was then chilled on ice, and 0.5 ml of ice-cold ethyl acetate was added. Samples were centrifuged for 15 min at 3,000 rpm, and the supernatant was evaporated to dryness under nitrogen. The residue was dissolved in 150 μl mobile phase (acetonitrile:water 3:1, containing 0.1% formic acid) for LC/MS analysis. Reverse-phase HPLC separations were carried out using a Waters C18 column (2.1×100 mm, […]) equipped with a solvent delivery system (Waters model 2690, Milford, Mass.). The solvent system consisted of a linear gradient from 5 to 95% acetonitrile run over 16 min (0.2 mL/min flow rate). Mass spectra were acquired on an Alliance HT 2790+ZQ mass spectrometer using negative ion detection.
as §1, with “Liquid Chromatography/Mass Spectrometry—Compounds (each at 5 μM) were” for “In Vitro Metabolism in Hepatic Microsomes—A compound of structure (I) was”, “(1” for “(e.g., 1”, “150” for “150 μl”, “detection, scanning from 150 to 1500 Da. The electrospray ion source parameters were as follows: capillary voltage 3.5 kV (positive ion mode), cone voltage 37 V, source temperature 120° C., desolvation temperature 250° C., cone gas flow 25 L/h, and dessolvation gas flow 350 L/h.” for “detection.”
PPQ-102 is a small-molecule inhibitor of CFTR chloride conductance with efficacy in preventing and reversing cyst formation in an organ culture model of PKD (see, e.g., Tradtrantip et al., J. Med. Chem. 2009, supra; Int'l Patent Appl. Publication No. WO 2011/019737). Preliminary analysis of the metabolic stability and aqueous solubility of PPQ-102, indicated poorer metabolic stability and lower water solubility (˜2 μM in albumin-free saline) than desired for optimal drugability. In vitro metabolic stability was determined by compound incubation with hepatic microsomes at 37° C. for specified times in the absence vs. presence of NADPH, following by LC/MS analysis. Shown in FIG. 6A is PPQ-102 disappearance in hepatic microsomes in the presence of NADPH, with ˜60% disappearance in 30 min.

Aqueous solubility = type: physicochemical
human wildtype CFTR [2] = biological target: T1, human wildtype CFTR (Homo sapiens, UniProt P13569); assay: Fluorescence plate reader assay of CFTR inhibition (iodide influx); type: cell-based; design: expressed in transfected cells; host or cells: Fischer rat thyroid (FRT) cells; conditions: Determined by micro-plate reader assay; FRT cells co-expressing human wild type CFTR and YFP-H148Q
T1 sequence (P13569 whole entry): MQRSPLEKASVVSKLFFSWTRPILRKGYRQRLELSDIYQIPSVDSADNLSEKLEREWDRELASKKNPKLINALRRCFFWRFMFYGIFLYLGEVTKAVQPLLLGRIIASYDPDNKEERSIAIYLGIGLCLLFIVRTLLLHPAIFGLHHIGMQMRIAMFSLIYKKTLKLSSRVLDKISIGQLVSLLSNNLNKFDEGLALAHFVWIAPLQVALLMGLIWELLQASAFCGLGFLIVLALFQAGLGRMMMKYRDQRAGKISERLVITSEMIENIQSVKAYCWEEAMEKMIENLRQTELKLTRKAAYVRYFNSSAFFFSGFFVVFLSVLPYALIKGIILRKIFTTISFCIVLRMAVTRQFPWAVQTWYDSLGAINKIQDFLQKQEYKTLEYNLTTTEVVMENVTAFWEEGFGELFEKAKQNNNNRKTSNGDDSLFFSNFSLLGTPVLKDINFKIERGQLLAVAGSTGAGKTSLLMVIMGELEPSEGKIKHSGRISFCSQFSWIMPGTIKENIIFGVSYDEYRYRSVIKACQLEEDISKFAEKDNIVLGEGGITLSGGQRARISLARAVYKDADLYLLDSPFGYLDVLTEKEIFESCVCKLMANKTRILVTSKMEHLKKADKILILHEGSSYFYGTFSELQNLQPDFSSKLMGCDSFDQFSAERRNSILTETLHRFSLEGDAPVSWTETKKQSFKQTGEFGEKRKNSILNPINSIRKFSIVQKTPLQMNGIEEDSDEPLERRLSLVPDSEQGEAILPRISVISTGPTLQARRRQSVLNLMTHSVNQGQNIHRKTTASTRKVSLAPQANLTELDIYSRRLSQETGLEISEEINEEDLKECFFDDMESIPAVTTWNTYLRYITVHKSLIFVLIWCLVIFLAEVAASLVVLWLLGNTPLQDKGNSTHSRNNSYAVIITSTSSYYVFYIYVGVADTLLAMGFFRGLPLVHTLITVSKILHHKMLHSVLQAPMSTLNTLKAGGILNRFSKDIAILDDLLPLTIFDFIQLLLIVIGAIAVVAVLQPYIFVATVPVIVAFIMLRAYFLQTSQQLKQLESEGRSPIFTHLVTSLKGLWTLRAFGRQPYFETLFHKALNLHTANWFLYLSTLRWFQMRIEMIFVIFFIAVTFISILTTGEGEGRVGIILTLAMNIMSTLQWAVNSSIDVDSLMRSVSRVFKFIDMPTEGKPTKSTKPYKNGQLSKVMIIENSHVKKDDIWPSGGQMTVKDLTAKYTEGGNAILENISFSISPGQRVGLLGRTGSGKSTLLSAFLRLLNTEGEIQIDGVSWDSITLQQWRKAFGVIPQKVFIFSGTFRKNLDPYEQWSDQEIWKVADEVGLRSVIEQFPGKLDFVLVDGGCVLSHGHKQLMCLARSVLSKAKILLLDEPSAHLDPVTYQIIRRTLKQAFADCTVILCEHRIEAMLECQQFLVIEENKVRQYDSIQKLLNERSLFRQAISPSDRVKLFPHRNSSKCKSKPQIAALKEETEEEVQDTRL
Protocol: Cell Culture and Plate Reader Assay of CFTR Inhibition—Fischer rat thyroid (FRT) cells co-expressing human wild type CFTR and the halide indicator YFP-H148Q were cultured in 96-well black-walled microplates (Corning Costar) at a density of 20,000 cells per well in Coon's modified F12 medium containing 10% fetal bovine serum, 2 mM L-glutamine, 100 U/mL penicillin and 100 μg/mL streptomycin. CFTR chloride conductance was assayed at 48 h after plating on a FluoStar fluorescence plate reader (BMG Lab Technologies) as described (see, e.g., Ma et al., J Clin Invest. 2002, supra). Each well was washed 3 times with PBS, leaving 60 μL PBS. Test compounds were added and incubated with the cells for 45 min. Then, 5 μL of a CFTR-activating cocktail (10 μM forskolin, 100 μM IBMX, 20 μM apigenin in PBS) was added. After 15 min, each well was assayed for iodide influx by recording fluorescence continuously (200 ms per point) for 2 s (baseline) and then for 10 s after rapid addition of 160 μL of isosmolar PBS in which 137 mM chloride was replaced by iodide. The initial rate of iodide influx was computed from fluorescence data by non-linear regression.
Initial testing of the compounds for the capability to inhibit CFTR was performed using a plate-reader assay in which iodide influx was measured in FRT cells co-expressing human wild type CFTR and the iodide-sensing yellow fluorescent protein YFP-H148Q/1152L. […] Table B below provides IC50 values for PPQ and BPO compounds.
The relative IC50 values obtained from the plate reader assay are useful for comparisons. Absolute IC50 values obtained from the plate-reader assay are approximate, generally underestimating compound potency because of assay non-linearities, pH-dependent YFP fluorescence, the use of iodide instead of chloride, and compound dilution at the start of the assay (see, e.g., Galietta et al., Am. J. Physiol. Cell Physiol. 281:C1734-42 (2001)).

human wildtype CFTR [3] = biological target: T1, human wildtype CFTR; assay: Short-circuit current analysis of CFTR inhibition in CFTR-expressing FRT cells; type: cell-based; design: expressed in transfected cells; host or cells: Fischer rat thyroid (FRT) epithelial cells on Snapwell inserts
Protocol: Short-Circuit Current—Snapwell inserts containing CFTR-expressing FRT cells were mounted in an Ussing chamber. The hemichambers contained 5 mL of buffer containing 75 mM NaCl and 75 mM Na gluconate (apical) and 150 mM NaCl (basolateral) (pH 7.3), and the basolateral membrane was permeabilized with 250 μg/mL amphotericin B, as described (see, e.g., Sonawane et al., FASEB J 2006, supra). Short-circuit current was recorded continuously using a DVC-1000 voltage clamp (World Precision Instruments) using Ag/AgCl electrodes and 3 M KCl agar bridges.
Current was measured in CFTR-expressing FRT cells in which the basolateral membrane was permeabilized and in the presence of a transepithelial chloride concentration gradient, so that current is a quantitative linear measure of CFTR function. CFTR was activated by forskolin, followed by serial additions of increasing concentrations of test compounds.
CFTR inhibition potency was measured by short-circuit current analysis in FRT epithelial cells expressing human CFTR in presence of a transepithelial chloride gradient and in which the basolateral membrane was permeabilized with amphotericin B. Under these conditions short-circuit current is proportional to CFTR chloride conductance.

[4] = short-circuit current, FRT cells expressing human CFTR, forskolin-stimulated, read-out: IC50 for inhibition of CFTR chloride conductance

| Structure (SMILES) | compound disappearance (loss) in hepatic microsomes ([1]; in the presence of NADPH) [%] | metabolic stability in hepatic microsomes (in words) ([1]; in the presence of NADPH) | solubility (Aqueous solubility; pH 7.4 aqueous phosphate buffer, read-out: solubility) [µM] | IC50 (human wildtype CFTR [2]) [nM] | IC50 (human wildtype CFTR [3]; Determined by short-circuit current assay, read-out: IC50 (μM)^B) [µM] | IC50 (human wildtype CFTR [3]; [4]) [µM] | compound metabolized in hepatic microsomes ([1]; 4 h, in the presence of NADPH) [%] | compound loss in hepatic microsomes ([1]; in the absence of NADPH) | solubility (Aqueous solubility; albumin-free saline, saline or isotonic, read-out: water solubility) [µM] |
| --- | --- | --- | --- | --- | --- | --- | --- | --- | --- |
| Cn1c(=O)c2c(-c3ccccc3)n3c(c2n(C)c1=O)C(c1ccc(Br)o1)Oc1ccc(C(=O)O)cc1-3 (racemic) [BPO-27, 6-(5-Bromofuran-2-yl)-7,9-dimethyl-8,10-dioxo-11-phenyl-7,8,9,10-tetrahydro-6H-benzo[b]pyrimido[4′,5′:3,4]pyrrolo[1,2-d][1,4]oxazine-2-carboxylic acid] | < 5 | excellent stability | 17 (≈ 9.32 µg/mL) | 40 | 0.008 | ~0.008 | – | – | – |
| Cc1ccc(C2Nc3ccccc3-n3c(-c4ccccc4)c4c(=O)n(C)c(=O)n(C)c4c32)o1 (stereo not drawn) [PPQ-102, 7,9-Dimethyl-6-(5-methylfuran-2-yl)-11-phenyl-5,6-dihydropyrimido[4′,5′-3,4]pyrrolo[1,2-a]quinoxaline-8,10-(7H,9H)-dione, reference compound] | ~60 | – | – | 250 | – | 0.1 | > 75 | No loss | ~2 (≈ 0.877 µg/mL) |

From patent USRE48842E1, “Pyrimido-pyrrolo-oxazine-dione compound inhibitors of the cystic fibrosis transmembrane conductance regulator protein and uses therefor” (The Regents of the University of California, priority 2011, dated 2021)
